Test results reported in PubChem BioAssay (NCI).
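Briefly, cells in 96-well plates were exposed to five compound concentrations for 48 h, and endpoints were estimated by linear interpolation. At the GI50, growth is halved. TGI is the concentration that stops growth completely.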

Columns and labels:
Assay in all cases: DTP human tumour cell line panel, 48 h; in the data active = GI50 below about 0.43 µM; inactive = the rest
UACC-62 melanoma = test system: UACC-62 melanoma
SN12C renal = test system: SN12C renal
SF-295 CNS = test system: SF-295 CNS
HOP-62 NSCLC = test system: HOP-62 NSCLC
U251 CNS = test system: U251 CNS
NCI-H460 lung = test system: NCI-H460 lung
OVCAR-4 ovarian = test system: OVCAR-4 ovarian
T-47D breast = test system: T-47D breast
NCI-H522 lung = test system: NCI-H522 lung
SR leukemia = test system: SR leukemia
BT-549 breast = test system: BT-549 breast
HT29 colon = test system: HT29 colon
MALME-3M melanoma = test system: MALME-3M melanoma
A498 renal = test system: A498 renal
NCI-H226 lung = test system: NCI-H226 lung
TK-10 renal = test system: TK-10 renal
HCT-116 colon = test system: HCT-116 colon
OVCAR-5 ovarian = test system: OVCAR-5 ovarian
KM12 colon = test system: KM12 colon
786-0 renal = test system: 786-0 renal
HCT-15 colon = test system: HCT-15 colon
HCC-2998 colon = test system: HCC-2998 colon
M14 melanoma = test system: M14 melanoma
NCI/ADR-RES ovarian = test system: NCI/ADR-RES ovarian
UACC-257 melanoma = test system: UACC-257 melanoma
CCRF-CEM leukemia = test system: CCRF-CEM leukemia
DU-145 prostate = test system: DU-145 prostate
MOLT-4 leukemia = test system: MOLT-4 leukemia
IGROV1 ovarian = test system: IGROV1 ovarian
A549 NSCLC = test system: A549 NSCLC
SK-MEL-28 melanoma = test system: SK-MEL-28 melanoma
SNB-75 CNS = test system: SNB-75 CNS
OVCAR-8 ovarian = test system: OVCAR-8 ovarian
MDA-MB-231 breast = test system: MDA-MB-231 breast
SK-MEL-2 melanoma = test system: SK-MEL-2 melanoma
HS 578T breast = test system: HS 578T breast
MDA-MB-435 = test system: MDA-MB-435
K-562 leukemia = test system: K-562 leukemia
NCI-H23 lung = test system: NCI-H23 lung
EKVX NSCLC = test system: EKVX NSCLC
SK-MEL-5 melanoma = test system: SK-MEL-5 melanoma
LOX IMVI melanoma = test system: LOX IMVI melanoma
MCF7 breast = test system: MCF7 breast
PC-3 prostate = test system: PC-3 prostate
SK-OV-3 ovarian = test system: SK-OV-3 ovarian
COLO 205 colon = test system: COLO 205 colon
SF-539 CNS = test system: SF-539 CNS
ACHN renal = test system: ACHN renal
HL-60(TB) leukemia = test system: HL-60(TB) leukemia
OVCAR-3 ovarian = test system: OVCAR-3 ovarian
UO-31 renal = test system: UO-31 renal
SF-268 CNS = test system: SF-268 CNS
HOP-92 NSCLC = test system: HOP-92 NSCLC
RPMI-8226 leukemia = test system: RPMI-8226 leukemia
SW-620 colon = test system: SW-620 colon
CAKI-1 renal = test system: CAKI-1 renal
SNB-19 CNS = test system: SNB-19 CNS

COc1ccc([C@H]2[C@H](O)C(=O)N2c2cc(OC)c(OC)c(OC)c2)cc1
> 34300 nM: TGI (NCI-H460 lung)
3840 nM: TGI (NCI/ADR-RES ovarian)
< 20.9 nM: TGI (COLO 205 colon)
inactive: GI50 (OVCAR-4 ovarian) 1750 nM | GI50 (T-47D breast) > 100000 nM | GI50 (A498 renal) > 100000 nM | GI50 (TK-10 renal) > 100000 nM | GI50 (UACC-257 melanoma) 1870 nM | GI50 (SK-MEL-28 melanoma) 1700 nM
< 10 nM: TGI (NCI-H522 lung) | TGI (OVCAR-8 ovarian) | TGI (MDA-MB-435) | TGI (SF-539 CNS)
38.7 nM: TGI (SK-MEL-5 melanoma)
< 17.2 nM: TGI (HL-60(TB) leukemia)
120 nM: TGI (OVCAR-3 ovarian)
288 nM: TGI (BT-549 breast)
> 100000 nM: TGI (UACC-62 melanoma) | TGI (SN12C renal) | TGI (SF-295 CNS) | TGI (HOP-62 NSCLC) | TGI (U251 CNS) | TGI (OVCAR-4 ovarian) | TGI (T-47D breast) | TGI (MALME-3M melanoma) | TGI (A498 renal) | TGI (NCI-H226 lung) | TGI (TK-10 renal) | TGI (HCT-116 colon) | TGI (OVCAR-5 ovarian) | TGI (KM12 colon) | TGI (786-0 renal) | TGI (HCT-15 colon) | TGI (HCC-2998 colon) | TGI (M14 melanoma) | TGI (UACC-257 melanoma) | TGI (CCRF-CEM leukemia) | TGI (MOLT-4 leukemia) | TGI (IGROV1 ovarian) | TGI (A549 NSCLC) | TGI (SK-MEL-28 melanoma) | TGI (SNB-75 CNS) | TGI (MDA-MB-231 breast) | TGI (SK-MEL-2 melanoma) | TGI (HS 578T breast) | TGI (K-562 leukemia) | TGI (NCI-H23 lung) | TGI (EKVX NSCLC) | TGI (LOX IMVI melanoma) | TGI (MCF7 breast) | TGI (PC-3 prostate) | TGI (SK-OV-3 ovarian) | TGI (ACHN renal) | TGI (UO-31 renal) | TGI (SF-268 CNS) | TGI (HOP-92 NSCLC) | TGI (RPMI-8226 leukemia) | TGI (SW-620 colon) | TGI (CAKI-1 renal) | TGI (SNB-19 CNS)
active: GI50 (UACC-62 melanoma) < 10 nM | GI50 (SN12C renal) < 15 nM | GI50 (SF-295 CNS) < 10 nM | GI50 (HOP-62 NSCLC) < 19.9 nM | GI50 (U251 CNS) < 10 nM | GI50 (NCI-H460 lung) < 13.3 nM | GI50 (NCI-H522 lung) < 10 nM | GI50 (SR leukemia) < 10 nM | GI50 (BT-549 breast) < 13.7 nM | GI50 (HT29 colon) < 10 nM | GI50 (NCI-H226 lung) < 10 nM | GI50 (HCT-116 colon) < 10 nM | GI50 (OVCAR-5 ovarian) < 17.9 nM | GI50 (KM12 colon) < 10 nM | GI50 (786-0 renal) < 17.8 nM | GI50 (HCT-15 colon) < 10.3 nM | GI50 (HCC-2998 colon) < 15.8 nM | GI50 (M14 melanoma) < 12.7 nM | GI50 (NCI/ADR-RES ovarian) < 13.9 nM | GI50 (CCRF-CEM leukemia) < 10 nM | GI50 (DU-145 prostate) < 10.9 nM | GI50 (MOLT-4 leukemia) < 16.8 nM | GI50 (IGROV1 ovarian) < 10.8 nM | GI50 (A549 NSCLC) < 13.2 nM | GI50 (SNB-75 CNS) < 10 nM | GI50 (OVCAR-8 ovarian) < 10 nM | GI50 (MDA-MB-231 breast) < 16.2 nM | GI50 (SK-MEL-2 melanoma) 30.9 nM | GI50 (HS 578T breast) < 11.1 nM | GI50 (MDA-MB-435) < 10 nM | GI50 (K-562 leukemia) < 10 nM | GI50 (NCI-H23 lung) 11 nM | GI50 (SK-MEL-5 melanoma) < 10 nM | GI50 (LOX IMVI melanoma) < 10 nM | GI50 (MCF7 breast) < 10 nM | GI50 (PC-3 prostate) < 10 nM | GI50 (SK-OV-3 ovarian) < 12.1 nM | GI50 (COLO 205 colon) < 13.2 nM | GI50 (SF-539 CNS) < 10 nM | GI50 (ACHN renal) < 10 nM | GI50 (HL-60(TB) leukemia) < 10 nM | GI50 (OVCAR-3 ovarian) < 10 nM | GI50 (UO-31 renal) < 14 nM | GI50 (SF-268 CNS) < 20.7 nM | GI50 (RPMI-8226 leukemia) < 10 nM | GI50 (SW-620 colon) < 10.9 nM | GI50 (CAKI-1 renal) < 10 nM | GI50 (SNB-19 CNS) < 26.7 nM
